Data published in US10898576B2, “Glucocorticoid combined with polyethylene glycol-modified interleukin 2 for treating respiratory disease” (priority 2016, dated 2021).

Experiments:
asthma mice [1] = assay: Example 6: asthma mice challenged days 9-18, local atomization vs intraperitoneal Dex, lung function and pathology; assay type: in vivo, BALB/c mice; conditions: 40 μg Dex per mouse
Procedure: (§1) Lung histopathology. The lungs of mice were fixed in 10% formalin, embedded in paraffin, sectioned, stained with H&E (Merck & Co, Inc) and PAS (Sigma), respectively, and examined under a 20-fold microscope.
Lung function measurement. After being anesthetized with 2% pentobarbital sodium, the mice were subjected to respiratory provocation test with methacholine (Sigma) at 3.125 mg/ml, 6.25 mg/ml, and 12.5 mg/ml prepared in PBS, respectively. The airway resistance curve was plotted and analyzed (FinePoint NAM). The assay was performed using the BUXCO Airway Resistance and Lung Compliance System (BUXCO Electronics).
Modeling of asthma model mice and administration. The same mice as in Example 1 were used for asthma modeling, which were sensitized by intraperitoneal injection with 100 μg of ovalbumin (OVA) (Sigma) and 2 mg of Al(OH)3 for injection (Sigma) on days 1 and 8, and challenged by daily nasal instillation with 20 μl of 2% OVA on days 9-18. According to the purpose of the experiment, 40 μg Dex was intraperitoneally injected on days 12-18, 14-18 and 16-18, or 25,000 IU IL-2(PEG)+5 μg Bud was administered by atomization on days 16-18, respectively.
Administration and histopathological analysis were performed in the same manner as in Example 2, and lung function test was performed in the same manner as in Example 3. […]

[2] = test system: Treg in bronchoalveolar lavage fluid; assay: Flow cytometry of Treg in bronchoalveolar lavage fluid of OVA asthma mice after atomization in the lung; assay type: in vivo, BALB/c mice; conditions: same dose of the drug alone as in the combination, atomization days 12-14
Procedure: (§2) Female BALB/c mice aged 6-8 weeks (purchased from SLAC Laboratory Animal Co., Ltd.) were used for modeling of asthma, which were sensitized by intraperitoneal injection with 100 μg of ovalbumin (OVA) (Sigma) and 2 mg of Al(OH)3 for injection (Sigma) on days 1 and 8, and challenged by daily nasal instillation with 20 μl of 2% OVA on days 9-14 (FIG. 1A).
(§3) The asthma mice model of Example 1 were subjected to drug intervention while challenge by nasal instillation on days 12-14. The specific administration method was that the mice were anesthetized with 7% chloral hydrate (Sangon Biotech (Shanghai) Co., Ltd.) and then administrated quantitatively through atomization in the lung using an atomization metered dosing device (MicroSprayer®—Model IA-1B), and the administration volume was fixed at 25 ul/mouse, and the administration dose was adjusted by the level of concentration. On the 15th day, relevant indicators were detected.
Collection of bronchoalveolar lavage fluid. The mice were sacrificed by cervical dislocation. […] The IFN-γ, IL-4, IL-10, and IL-13 in the supernatant were measured by using commercial ELISA kit (R&D Corp).
Flow cytometry. […] All results were analyzed by FlowJo software (Treestar).

asthma mice [3] = assay: Lung histopathology (H&E, PAS) of OVA asthma mice; assay type: in vivo, BALB/c mice; conditions: same dose of the drug alone as in the combination, atomization days 12-14
Procedure: as §2, §3, §1

CTLL-2 cell = CTLL-2 cell assay of IL-2 activity; assay type: cell-based; conditions: compared with IL-2 working standard

## C[C@@H]1C[C@H]2[C@@H]3CCC4=CC(=O)C=C[C@]4(C)[C@@]3(F)[C@@H](O)C[C@]2(C)[C@@]1(O)C(=O)CO [Dex, dexamethasone]
Asthma mice [1]
  duration of intraperitoneal injection required to exert a therapeutic effect on asthma: at least 7 consecutive days

## IL-2: human-derived IL-2, sequence SEQ ID NO. 1 (Xiamen Amoytop Biotech Co., Ltd.)
[2]
  Treg in bronchoalveolar lavage fluid, single drug alone: could not be achieved
Asthma mice [3]
  pathological manifestations of lung inflammation, single drug alone: could not be achieved

## PEG-modified IL-2: IL-2 modified with a non-branched PEG of a molecular weight of 20 kD, main site N-terminus
CTLL-2 cell
  activity: comparable to that of the IL-2 working standard
